Reference: publication PMC3441706 (PLoS ONE, 2012)

How the values were obtained:
[1] = system: RKO p53+/+ or p53−/− cells; test: Determination of p53 status dependency; type: cell-based, human; conditions: RKO p53+/+ vs p53−/−, 72 hours, viable cell numbers
Experimental: (§1) The isogenic colon carcinoma cells lines HCT116 p53+/+ or p53−/− and RKO p53+/+ or p53−/− were cultured in 12-well plates. After a recovery period of 24 hours, NVX-412 or Nutlin-3 was added in fresh growth medium at the indicated concentrations. […] After 24 or 72 hours cell numbers were determined with a Beckman Coulter ViCell XR.

[2] = system: HCT116 p53+/+ or p53−/− cells; test: Determination of p53 status dependency; type: cell-based, human; conditions: HCT116 p53+/+ vs p53−/−, 72 hours, viable cell numbers
Experimental: as §1

[3] = system: HT-29 cells; test: Proliferation kinetics; type: cell-based, human
Experimental: HT-29 cells were plated (2×10^4 cells/well) in 24-well plates. After a recovery period of 24 hours, NVX-412 was added in fresh growth medium to final concentrations of 0, 300 and 1000 nM, respectively. After 24, 48 and 72 hours cell numbers were determined with a Z1 Coulter Particle Counter.

[4] = system: all cell lines tested; test: β-galactosidase staining (cellular senescence); type: cell-based; conditions: data not shown
[5] = system: pChk1 (Ser296); test: Western Blot for pChk1 (Ser296) in HCT116 cells; type: cell-based, human; conditions: HCT116, 150 nM, 0–48 hours
Experimental: (§2) Treated cells were directly lysed in NP40 cell lysis buffer (Invitrogen, Grand Island, NY, USA) containing protease and phosphatase inhibitors. Protein concentrations were measured colorimetrically (DC Protein Assay, Bio-Rad Laboratories, Hercules, CA, USA). Proteins were separated by SDS - polyacrylamide gel electrophoresis and blotted onto nitrocellulose membranes (Whatman™, Vienna, AUT). Equal loading was checked by Ponceau S (SERVA, Heidelberg, GER) staining. Bound antigen was visualized with the enhanced chemiluminescence detection system (Roche Diagnostics, Indianapolis, IN, USA). These procedures were performed according to the manufacturer’s protocols. Antibodies specific for the following proteins of interest were used: pChk1 (Ser296), p-p53 (Ser15), β-Tubulin and GAPDH were obtained from Cell Signaling Technology (Danvers, MA, USA) at 1∶1000 dilution. Secondary antibodies were peroxidase-tagged goat anti-rabbit or anti-mouse IgGs (Cell Signaling Technology) (1∶2000).

[6] = system: HCT116; test: Cytotoxicity assay (cell counting); type: cell-based, Human
Experimental: Cells were plated in 24-well plates. After cells were allowed to recover for 24 hours, NVX-412 was added in fresh growth medium. The maximal DMSO concentration reached in all experiments was below 0.01%. Respective control experiments at the highest DMSO concentration were performed in order to rule out DMSO-induced effects. After 72 hours incubation the proportion of viable cells was determined by cell counting with a Z1 Coulter Particle Counter (Beckman Coulter, Vienna, AUT), a ViCell XR (Beckman Coulter, Vienna, AUT) or a CASY® Cell Counter (Schärfe, Reutlingen, Germany). Cytotoxicity was expressed as IC50 values that were derived from the corresponding dose–response curves.

[7] = system: HCT116 cells; test: DNA replication rate (BrdU incorporation ELISA); type: cell-based, human
Experimental: (§3) HeLa and HCT116 cells were plated in black 96-well plates. After cells were allowed to recover for 24 hours NVX-412 or CPT was added in fresh growth medium. After 24 hours of incubation a chemiluminescent BrdU Incorporation ELISA (Roche Applied Science, Penzberg, Germany) was performed with half of the plates according to the manufacturer’s protocol. Cells in the remaining plates were allowed to recover for 24 hours in normal growth medium before DNA replication was measured (wash-out experiment). To check whether a possible decline in DNA replication rate is not simply due to lower cell numbers because of cell death induction, the proportion of viable cells was determined in parallel by a MTT-based cytotoxicity assay according to the manufacturer’s protocol (EZ4U, Biomedica, Vienna, Austria). Colorimetric (at 492 and 620 nm) and chemiluminescent measurements were performed using a FLUOstar OPTIMA (BMG Labtech, Ortenberg, Germany).

[8] = system: HeLa cells; test: DNA replication rate (BrdU incorporation ELISA); type: cell-based, human
Experimental: as §3

[9] = system: HT-29 cells; test: Clonogenic assay; type: cell-based, human; conditions: HT-29, 14 days incubation
Experimental: (§4) For clonogenic assays, HT-29 and HepG2 cells were plated in 60 mm dishes at a density of 1000 cells per dish. After 24 hours NVX-412 was added at the indicated concentrations. After cultivation for 12–14 days (when assessable colonies were visible), colonies were fixed in 70% ethanol, stained with 0.5% Crystal Violet and counted manually.

[10] = system: HepG2 cells; test: Clonogenic assay; type: cell-based, human; conditions: HepG2, 12 days incubation
Experimental: as §4

[11] = system: 59 different human tumor cell lines; test: NCI-60 DTP human tumor cell line screen, all cell lines combined; type: cell-based; conditions: 48 h, all cancer types, 48 hours incubation
Experimental: NVX-412 was included in an anti-cancer activity screen by the National Cancer Institute (NCI). The compound was tested against 59 different human tumor cell lines, representing leukemia, melanoma and cancers of the lung, colon, brain, ovary, breast, prostate, and kidney (for a complete list of cell lines please refer to Shoemaker et al. 2006 [5]). The methodology of this in vitro cancer screen is described in detail on the NCI website (http://dtp.nci.nih.gov/branches/btb/ivclsp.html). Briefly, the human tumor cell lines of the cancer screening panel were grown in RPMI 1640 medium containing 5% FCS and 2 mM L-glutamine in 96-well plates at densities ranging from 5,000 to 40,000 cells/well. After 24 hours the experimental drug was added at 5 concentrations plus control and cells were incubated for additional 48 hours. For determination of the growth-inhibitory effect of the compound a sulphorhodamine B assay was performed that employs a chemical fixation step at the end of drug treatment and a subsequent staining for 10 minutes. After a washing step, absorbance was determined at 515 nm. […]

[12] = system: p-p53 (Ser15); test: Western Blot for p-p53 (Ser15) in HCT116 cells; type: cell-based, human; conditions: HCT116, 24 and 48 hours
Experimental: as §2

Structure (SMILES): O=C(NNc1nc2cc(F)ccc2n2cccc12)c1cnccn1 [NVX-412, Pyrazine-2-carboxylic acid N’- (7-fluoro-pyrrolo[1,2-α]quinoxalin-4-yl)-hydrazide-oxalic acid co-crystal]
- p53 status dependency of sensitivity [1]: the p53 status does not influence the sensitivity to NVX-412
- p53 status dependency of sensitivity [2]: the p53 status does not influence the sensitivity to NVX-412
- Proliferation of cells ([3]; HT-29, 300 nM (IC50), after 2 days, compared to untreated control): significantly decreased
- Cell numbers ([3]; HT-29, 1 µM, 3 days of treatment): cell numbers started to decline below the numbers of cells seeded
- β-galactosidase staining (senescence) [4]: negative in all cell lines tested
- Chk1 Ser296 phosphorylation [5]: increased after 4 hours
- IC50 lower compared to the parental compound NVX-144 ([6]; HCT116 colon carcinoma cell line): 3 to 4 fold
- IC50 ([6]; Homo sapiens, HCT-116, HCT116, colon carcinoma, 72 hours incubation): 150 nM
- DNA replication rate (BrdU incorporation) ([7]; HCT116, 24 hours treatment): reduction of DNA replication
- DNA replication rate after recovery (wash-out) ([7]; HCT116, 24 hours treatment then 24 hours in normal growth medium): the rate increased to normal levels
- DNA replication rate (BrdU incorporation) ([8]; 24 hours treatment): reduction of DNA replication
- DNA replication rate after recovery (wash-out) ([8]; 24 hours treatment then 24 hours in normal growth medium): the rate increased to normal levels
- Clonogenic survival [9]: reduced the ability of HepG2 and HT-29 cells to form colonies in a dose-dependent manner
- Clonogenic survival [10]: reduced the ability of HepG2 and HT-29 cells to form colonies in a dose-dependent manner
- IC50 [11]: ~200 nM
- Phosphorylated p53 (Western Blot) ([12]; below or at the IC50): negative for phosphorylated p53
- Phosphorylated p53 (Western Blot) ([12]; concentrations above the IC50): strong induction
